Results published in US6737383B1, “Herbicidal oxadiazolidines” (priority 1999, dated 2004).

Experiments:
[1] = system: blackgrass; test: Test E blackgrass; assay type: in vivo, Alopecurus myosuroides; conditions: Preemergence
[2] = system: winter wheat; test: Test E winter wheat; assay type: in vivo, Triticum aestivum; conditions: Preemergence
[3] = system: rice; test: Test B flood test rice; assay type: in vivo, Oryza sativa
Summary of the method: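 Read-out is a visual response score from 0 (no effect) to 10 (complete control), assigned by comparison with untreated controls. Treatment was applied at the 2-leaf stage, and plants stayed in the greenhouse for twelve to sixteen days before scoring.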

[4] = system: corn; test: Test B pre/postemergence corn; assay type: in vivo, Zea mays
Summary of the method: (§1)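 Herbicidal effect was estimated by eye on a ten-point control scale after plants spent twelve to sixteen days in a greenhouse following soil or foliar treatment. Foliar sprays targeted plants at one to four leaves; all doses were formulated in a non-phytotoxic solvent with surfactant.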

[5] = system: winter barley; test: Test E winter barley; assay type: in vivo, Hordeum vulgare; conditions: Preemergence
[6] = system: winter wheat; test: Test E winter wheat; assay type: in vivo, Triticum aestivum; conditions: Postemergence
Summary of the method: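 Greenhouse test: for postemergence, foliar application at 1- to 4-leaf stage; compound in non-phytotoxic solvent with surfactant. Rating is visual, relative to untreated controls, about 21 to 28 days after treatment.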

[7] = system: wild oat; test: Test E wild oat; assay type: in vivo, Avena fatua; conditions: Preemergence
[8] = system: goosegrass; test: Test D goosegrass; assay type: in vivo, Eleusine indica; conditions: Preemergence, 0 to 100 scale
Summary of the method: (§2)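 Scoring used a 0–100 visual injury scale, with 0 meaning no effect and 100 complete control, assessed 14–21 days after application alongside untreated pots. Preemergence treatments went onto sandy loam surfaces of separately potted seeds within a day of sowing.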

[9] = system: crabgrass; test: Test B pre/postemergence crabgrass; assay type: in vivo, Digitaria sanguinalis
Summary of the method: as §1

[10] = system: Green foxtail; test: Test D green foxtail; assay type: in vivo
Summary of the method: as §2

[11] = system: Italian ryegrass; test: Test E Italian ryegrass; assay type: in vivo, Lolium multiflorum; conditions: Preemergence
[12] = system: velvetleaf; test: Test B pre/postemergence velvetleaf; assay type: in vivo, Abutilon theophrasti; conditions: for Velvetleaf plant response rating (0 to 10 scale): 0 is no effect; for Plant response rating, Velvetleaf: Rate 250 g/ha
Summary of the method: as §1

[13] = system: green foxtail; test: Test E green foxtail; assay type: in vivo, Setaria viridis; conditions: Preemergence
[14] = Rate 500 g/ha, 0 to 100 scale where 0 is no effect and 100 is complete control
[15] = Rate 1000 g/ha, 0 to 100 scale where 0 is no effect and 100 is complete control
[16] = Postemergence (flood test species), Rate 125 g/ha, scale of 0 to 10 where 0 is no effect and 10 is complete control
[17] = Rate 62 g/ha, Postemergence section, flood test species, scale of 0 to 10 where 0 is no effect and 10 is complete control
[18] = Rate 250 g/ha, Postemergence (flood test), scale 0 to 10, 0 is no effect, 10 is complete control
[19] = Rate 500 g/ha, listed under Postemergence (flood test species), scale 0 to 10, 0 no effect, 10 complete control
[20] = Postemergence, Rate 125 g/ha, scale of 0 to 10 where 0 is no effect and 10 is complete control
[21] = Postemergence, Rate 250 g/ha, scale 0 to 10, 0 no effect, 10 complete control
[22] = Preemergence, Rate 62 g/ha, scale 0 to 10 (0 no effect, 10 complete control)
[23] = Preemergence, Rate 125 g/ha, scale 0 to 10 (0 no effect, 10 complete control)
[24] = Preemergence, Rate 250 g/ha, scale of 0 to 10 where 0 is no effect and 10 is complete control
[25] = Preemergence, Rate 500 g/ha, scale 0 to 10 (0 no effect, 10 complete control)
[26] = Rate 62 g/ha, Postemergence, scale of 0 to 10 where 0 is no effect and 10 is complete control
[27] = Rate 500 g/ha, Postemergence, scale 0 to 10, 0 no effect, 10 complete control
[28] = Rate 250 g/ha, 0 to 100 scale (0 no effect, 100 complete control)
[29] = Rate 64 g/ha, 0 no injury, 100 complete control
[30] = Rate 125 g/ha, 0 no injury, 100 complete control
[31] = Rate 64 g/ha, Preemergence; 0 to 100 scale, 0 no injury, 100 complete control
[32] = Rate 125 g/ha, Preemergence; 0 to 100 scale, 0 no injury, 100 complete control
[33] = Rate 500 g/ha, Preemergence; 0 to 100 scale
[34] = Preemergence, Rate 125 g/ha, 10 is complete control
[35] = Preemergence, scale of 0 to 10 where 0 is no effect and 10 is complete control
[36] = Postemergence, scale 0 to 10, 0 is no effect, 10 is complete control
[37] = Rate 62 g/ha, 0 to 100 scale, 0 no effect, 100 complete control
[38] = Rate 125 g/ha, 0 to 100 scale (0 no effect, 100 complete control)

CC(C)N(C(=O)n1oc(=O)n(C2CCCCC2)c1=O)c1ccc(F)cc1F [Compound 115]
Plant response rating, Blackgrass ([1]; Rate 250 g/ha, 0 to 100 scale): 30 | Plant response rating, Blackgrass [1, 14]: 50 | Plant response rating, Blackgrass [1, 15]: 60 | Plant response rating, Wheat (winter) ([2]; Rate 250 g/ha, 0 to 100 scale): 5 | Plant response rating, Wheat (winter) [2, 14]: 10 | Plant response rating, Wheat (winter) [2, 15]: 20 | Rice plant response rating [3, 16]: 0 | Rice plant response rating [3, 17]: 0 | Plant response rating, Rice [3, 18]: 0 | Rice plant response rating [3, 19]: 0 | Corn plant response rating [4, 20]: 0 | Corn plant response rating [4, 21]: 0 | Corn plant response rating [4, 22]: 0 | Plant response rating, Corn [4, 23]: 0 | Plant response rating, Corn [4, 24]: 0 | Corn plant response rating [4, 25]: 0 | Corn plant response rating [4, 26]: 0 | Corn plant response rating [4, 27]: 0 | Plant response rating, Barley (winter) ([5]; Rate 250 g/ha, 0 to 100 scale): 10 | Plant response rating, Barley (winter) [5, 14]: 20 | Plant response rating, Barley (winter) [5, 15]: 30 | Plant response rating, Wheat (winter) [6, 28]: 10 | Plant response rating, Wheat (winter) ([6]; Rate 1000 g/ha, 0 to 100 scale, 0 is no effect and 100 is complete control): 40 | Plant response rating, Wheat (winter) ([6]; Rate 500 g/ha, 0 to 100 scale, 0 no effect, 100 complete control): 20 | Plant response rating, Wild oat [7, 14]: 50 | Plant response rating, Wild oat [7, 15]: 60 | Plant response rating, Goosegrass ([8]; Rate 16 g/ha, 0 no injury, 100 complete control): 20 | Plant response rating, Goosegrass ([8]; Rate 32 g/ha, 0 no injury, 100 complete control): 85 | Plant response rating, Goosegrass [8, 29]: 90 | Plant response rating, Goosegrass [8, 30]: 98 | Plant response rating, Goosegrass ([8]; Rate 250 g/ha): 100 | Plant response rating, Goosegrass ([8]; Rate 500 g/ha): 100 | Crabgrass plant response rating [9, 20]: 0 | Crabgrass plant response rating [9, 21]: 2 | Crabgrass plant response rating [9, 22]: 4 | Plant response rating, Crabgrass [9, 23]: 4 | Plant response rating, Crabgrass [9, 24]: 7 | Crabgrass plant response rating [9, 25]: 9 | Crabgrass plant response rating [9, 26]: 0 | Crabgrass plant response rating [9, 27]: 6 | Plant response rating, Green foxtail ([10]; Preemergence; Rate 16 g/ha; 0 to 100 scale, 0 no injury, 100 complete control): 0 | Plant response rating, Green foxtail ([10]; Preemergence; Rate 32 g/ha; 0 to 100 scale, 0 no injury, 100 complete control): 70 | Plant response rating, Green foxtail ([10]; Rate 16 g/ha; Preemergence; 0 to 100 scale, 0 no injury, 100 complete control): 0 | Plant response rating, Green foxtail ([10]; Rate 32 g/ha; Preemergence; 0 to 100 scale, 0 no injury, 100 complete control): 75 | Green foxtail plant response rating [10, 31]: 85 | Plant response rating, Green foxtail [10, 31]: 85 | Green foxtail plant response rating [10, 32]: 100 | Plant response rating, Green foxtail [10, 32]: 100 | Plant response rating, Green foxtail ([10]; Rate 250 g/ha; Preemergence; 0 to 100 scale): 100 | Plant response rating, Green foxtail [10, 33]: 100 | Plant response rating, I. Ryegrass ([11]; Rate 250 g/ha, 0 to 100 scale): 45 | Plant response rating, I. Ryegrass [11, 14]: 50 | Plant response rating, I. Ryegrass [11, 15]: 80 | Velvetleaf plant response rating [12, 20]: 0 | Velvetleaf plant response rating [12, 22]: 0 | Velvetleaf plant response rating (0 to 10 scale) [12, 34]: 0 | Plant response rating, Velvetleaf [12, 35]: 2 | Velvetleaf plant response rating [12, 25]: 2 | Velvetleaf plant response rating [12, 26]: 0 | Plant response rating, Velvetleaf [12, 36]: 0 | Velvetleaf plant response rating [12, 27]: 0 | Plant response rating, Green foxtail ([13]; Rate 250 g/ha, 0 to 100 scale): 65 | Plant response rating, Green foxtail [13, 14]: 70 | Plant response rating, Green foxtail [13, 15]: 90

CCn1c(=O)on(C(=O)N(c2ccccc2)C(C)C)c1=O [Compound 117]
Plant response rating, Blackgrass [1, 37]: 50 | Plant response rating, Blackgrass [1, 38]: 50 | Plant response rating, Blackgrass ([1]; Rate 250 g/ha, 0 to 100 scale): 60 | Plant response rating, Wheat (winter) [2, 37]: 30 | Plant response rating, Wheat (winter) [2, 38]: 60 | Plant response rating, Wheat (winter) ([2]; Rate 250 g/ha, 0 to 100 scale): 90 | Rice plant response rating [3, 16]: 0 | Rice plant response rating [3, 17]: 0 | Plant response rating, Rice [3, 18]: 0 | Rice plant response rating ([3]; Rate 250 g/ha, headed Pre-emergence (flood test species), scale 0 to 10 (0 no effect, 10 complete control)): 0 | Plant response rating, Rice ([3]; Rate 500 g/ha, headed Pre-emergence (flood test species), scale 0 to 10 (0 no effect, 10 complete control)): 0 | Rice plant response rating [3, 19]: 0 | Rice plant response rating ([3]; Rate 1000 g/ha, Pre-emergence (as headed), scale 0 to 10): 0 | Rice plant response rating ([3]; Rate 2000 g/ha, Pre-emergence (as headed), scale 0 to 10): 0 | Corn plant response rating [4, 20]: 5 | Corn plant response rating [4, 21]: 6 | Corn plant response rating [4, 22]: 0 | Plant response rating, Corn [4, 23]: 2 | Plant response rating, Corn [4, 24]: 7 | Corn plant response rating [4, 25]: 9 | Corn plant response rating [4, 26]: 0 | Corn plant response rating [4, 27]: 7 | Plant response rating, Barley (winter) [5, 37]: 25 | Plant response rating, Barley (winter) [5, 38]: 20 | Plant response rating, Barley (winter) ([5]; Rate 250 g/ha, 0 to 100 scale): 30 | Plant response rating, Wheat (winter) ([6]; Rate 62 g/ha, 0 to 100 scale): 0 | Plant response rating, Wheat (winter) ([6]; Rate 125 g/ha, 0 to 100 scale): 10 | Plant response rating, Wheat (winter) [6, 28]: 25 | Plant response rating, Wild oat [7, 37]: 20 | Plant response rating, Wild oat [7, 38]: 20 | Plant response rating, Goosegrass [8, 29]: 85 | Plant response rating, Goosegrass [8, 30]: 100 | Plant response rating, Goosegrass ([8]; Rate 500 g/ha): 100 | Crabgrass plant response rating [9, 20]: 9 | Crabgrass plant response rating [9, 21]: 9 | Crabgrass plant response rating [9, 22]: 9 | Plant response rating, Crabgrass [9, 23]: 10 | Plant response rating, Crabgrass [9, 24]: 10 | Crabgrass plant response rating [9, 25]: 10 | Crabgrass plant response rating [9, 26]: 9 | Crabgrass plant response rating [9, 27]: 9 | Green foxtail plant response rating [10, 31]: 100 | Plant response rating, Green foxtail [10, 31]: 100 | Green foxtail plant response rating [10, 32]: 100 | Plant response rating, Green foxtail [10, 32]: 100 | Plant response rating, Green foxtail [10, 33]: 100 | Plant response rating, I. Ryegrass [11, 37]: 50 | Plant response rating, I. Ryegrass [11, 38]: 45 | Plant response rating, I. Ryegrass ([11]; Rate 250 g/ha, 0 to 100 scale): 85 | Velvetleaf plant response rating [12, 20]: 3 | Velvetleaf plant response rating [12, 22]: 6 | Velvetleaf plant response rating (0 to 10 scale) [12, 34]: 8 | Plant response rating, Velvetleaf [12, 35]: 10 | Velvetleaf plant response rating [12, 25]: 10 | Velvetleaf plant response rating [12, 26]: 0 | Plant response rating, Velvetleaf [12, 36]: 6 | Velvetleaf plant response rating [12, 27]: 8 | Plant response rating, Green foxtail [13, 37]: 50 | Plant response rating, Green foxtail [13, 38]: 60 | Plant response rating, Green foxtail ([13]; Rate 250 g/ha, 0 to 100 scale): 80
